Reference: US4596808A, “Pharmacologically active 3-substituted beta-carbolines useful as tranquilizers” (Schering Aktiengesellschaft, priority 1980, dated 1986)
Like-named read-outs stand apart in the source and are kept apart here.

Legend:
[1] = target: benzodiazepine receptor; test: Displacement of 3H-flunitrazepam from benzodiazepine receptors in vitro (IC50); format: binding; settings: rat forebrain, 3H-flunitrazepam 1.0 nM, 0° C.
Description: For example, it is known that certain locations in the central nervous system of vertebrates have a high specific affinity for bonding 1,4 and 1,5-benzodiazepines. (See, e.g., R. F. Squires & C. Braestrup, Nature [London] 266 [1977], 734, which is incorporated by reference herein). These locations are called benzodiazepine receptors.
This displacement activity of the compounds of this invention has been determined by measuring IC50 and ED50 values. The IC50 value is the concentration which causes a 50% displacement of the specific binding of ^3 H-flunitrazepam (1.0 nM, 0° C.) in samples with a total volume of 0.55 ml of a suspension of brain membrane, e.g., from rats.
The displacement test is carried out as follows:
0.5 ml of a suspension of untreated rat forebrain in 25 mM KH2 PO4, at a pH of 7.1 (5-10 mg of tissue per sample) were incubated with ^3 H-diazepam (specific activity 14.4 Ci/millimole, 1.9 nM) or ^3 H-flunitrazepam (specific activity 87 Ci/millimole, 1.0 nM) for 40-60 minutes at 0° C. After incubation, the suspension is filtered through a glass frit, the residue is washed twice with a cold buffer solution and the radioactivity is measured by scintillation counting.
The test is then repeated, except prior to addition of the radioactively marked benzodiazepine, a given amount or an excess amount of the compound whose displacement activity is to be ascertained, is added. The IC50 value can then be computed from the test results obtained.

[2] = test system: benzodiazepine receptor; test: In vivo inhibition of 3H-flunitrazepam binding to the benzodiazepine receptor in living brain (ED50); settings: mice, subcutaneous, 3H-flunitrazepam i.v. 15 min later
[3] = test system: pentazole-induced convulsions; test: Antagonism of pentazole-induced convulsions; format: in vivo; settings: sc
Description: Moreover, the antagonism of pentazole-induced convulsions was investigated.
The test has been performed according to known test models in pharmacology,e.g., described in R. A. Turner, Screening Methods in Pharmacology, Academic Press, N.Y. and London 1965, esp. p. 164 ff., or, Woodbury, P. M., Perry, I. K. and Schmidt, R. P. Antiepileptic Drugs, Raven Press, N.Y. 1972.

[4] = clonic, read-out: Antagonism of pentazole-induced convulsions, ED50 s.c., Clonic convulsions
[5] = death, read-out: Antagonism of pentazole-induced convulsions, ED50 s.c., Death
[6] = tonic, read-out: Antagonism of pentazole-induced convulsions, ED50 s.c., Tonic convulsions

## CNN=Cc1cc2c(cn1)[nH]c1ccccc12 [CHNNHCH3, beta-carboline-3-carboxaldehyde-methylhydrazone]
[1]
  In vitro IC50, inhibition of 3H flunitrazepam binding (Affinity for the benzodiazepine receptor): 0.149 µg/mL
[2]
  In vivo ED50, inhibition of 3H flunitrazepam binding (Affinity for the benzodiazepine receptor): 92 mg/kg

## CCOC(=O)CC(=O)c1cc2c(cn1)[nH]c1ccccc12 [COCH2 COOC2 H5, 3-carboethoxy-acetyl-beta-carboline]
[2]
  In vivo ED50, inhibition of 3H flunitrazepam binding (Affinity for the benzodiazepine receptor): > 250 mg/kg

## CC(=NN(C)C)c1cc2c(cn1)[nH]c1ccccc12 [drawing 25]
[1]
  In vitro IC50, inhibition of 3H flunitrazepam binding (Affinity for the benzodiazepine receptor): > 0.1 µg/mL
[2]
  In vivo ED50, inhibition of 3H flunitrazepam binding (Affinity for the benzodiazepine receptor): 119 mg/kg

## CN(C)S(=O)(=O)c1ccc2[nH]c3cnc(C=NN4CCCC4)cc3c2c1 [drawing 34]
[1]
  In vitro IC50, inhibition of 3H flunitrazepam binding (Affinity for the benzodiazepine receptor): 0.008 µg/mL
[2]
  In vivo ED50, inhibition of 3H flunitrazepam binding (Affinity for the benzodiazepine receptor): 210 mg/kg

## C(=NN1CCCC1)c1cc2c(cn1)[nH]c1ccccc12 [drawing 31]
[1]
  In vitro IC50, inhibition of 3H flunitrazepam binding (Affinity for the benzodiazepine receptor): > 0.1 µg/mL
[2]
  In vivo ED50, inhibition of 3H flunitrazepam binding (Affinity for the benzodiazepine receptor): 49 mg/kg

## CONC=NC(=O)c1cc2c(cn1)[nH]c1ccccc12
[1]
  In vitro IC50, inhibition of 3H flunitrazepam binding (Affinity for the benzodiazepine receptor): 0.1 µg/mL
[2]
  In vivo ED50, inhibition of 3H flunitrazepam binding (Affinity for the benzodiazepine receptor): > 250 mg/kg

## CCCCC(=O)c1cc2c(cn1)[nH]c1ccccc12 [COCH2 CH2 CH2 CH3, 3-pentanoyl-beta-carboline]
[1]
  In vitro IC50, inhibition of 3H flunitrazepam binding (Affinity for the benzodiazepine receptor): 0.02 µg/mL
[2]
  In vivo ED50, inhibition of 3H flunitrazepam binding (Affinity for the benzodiazepine receptor): 144 mg/kg

## CN(C)N=Cc1cc2c(cn1)[nH]c1ccc(S(=O)(=O)N(C)C)cc12 [drawing 32]
[1]
  In vitro IC50, inhibition of 3H flunitrazepam binding (Affinity for the benzodiazepine receptor): 0.004 µg/mL
[2]
  In vivo ED50, inhibition of 3H flunitrazepam binding (Affinity for the benzodiazepine receptor): 35 mg/kg

## Cc1nc(-c2cc3c(cn2)[nH]c2ccccc23)n(C)n1
[1]
  In vitro IC50, inhibition of 3H flunitrazepam binding (Affinity for the benzodiazepine receptor): 0.179 µg/mL
[2]
  In vivo ED50, inhibition of 3H flunitrazepam binding (Affinity for the benzodiazepine receptor): > 300 mg/kg

## CN1CCN(N=Cc2cc3c(cn2)[nH]c2ccccc23)CC1
[1]
  In vitro IC50, inhibition of 3H flunitrazepam binding (Affinity for the benzodiazepine receptor): 0.1 µg/mL
[2]
  In vivo ED50, inhibition of 3H flunitrazepam binding (Affinity for the benzodiazepine receptor): 210 mg/kg

## CCCCC(=NO)c1cc2c(cn1)[nH]c1ccccc12
[1]
  In vitro IC50, inhibition of 3H flunitrazepam binding (Affinity for the benzodiazepine receptor): 0.468 µg/mL
[2]
  In vivo ED50, inhibition of 3H flunitrazepam binding (Affinity for the benzodiazepine receptor): > 250 mg/kg

## C(=NOCc1ccccc1)c1cc2c(cn1)[nH]c1ccccc12 [CHNOCH2 C6 H5, beta-carboline-3-carboxaldehyde-oxime-benzylether]
[1]
  In vitro IC50, inhibition of 3H flunitrazepam binding (Affinity for the benzodiazepine receptor): 0.0525 µg/mL
[2]
  In vivo ED50, inhibition of 3H flunitrazepam binding (Affinity for the benzodiazepine receptor): > 250 mg/kg

## CN(C)S(=O)(=O)c1ccc2[nH]c3cnc(C=NO)cc3c2c1 [CHNOH, drawing 36]
[1]
  In vitro IC50, inhibition of 3H flunitrazepam binding (Affinity for the benzodiazepine receptor): 0.0017 µg/mL
[2]
  In vivo ED50, inhibition of 3H flunitrazepam binding (Affinity for the benzodiazepine receptor): 300 mg/kg

## C(=NN1CCOCC1)c1cc2c(cn1)[nH]c1ccccc12 [drawing 28]
[1]
  In vitro IC50, inhibition of 3H flunitrazepam binding (Affinity for the benzodiazepine receptor): > 0.1 µg/mL
[2]
  In vivo ED50, inhibition of 3H flunitrazepam binding (Affinity for the benzodiazepine receptor): > 250 mg/kg

## CC(=O)ON=Cc1cc2c(cn1)[nH]c1ccccc12 [CHNOCOCH3]
[1]
  In vitro IC50, inhibition of 3H flunitrazepam binding (Affinity for the benzodiazepine receptor): 0.169 µg/mL
[2]
  In vivo ED50, inhibition of 3H flunitrazepam binding (Affinity for the benzodiazepine receptor): > 250 mg/kg

## CNC(=O)CC(=O)c1cc2c(cn1)[nH]c1ccccc12 [COCH2 CONHCH3]
[1]
  In vitro IC50, inhibition of 3H flunitrazepam binding (Affinity for the benzodiazepine receptor): > 0.1 µg/mL
[2]
  In vivo ED50, inhibition of 3H flunitrazepam binding (Affinity for the benzodiazepine receptor): > 250 mg/kg

## O=C(c1ccccc1)c1cc2c(cn1)[nH]c1ccccc12 [COC6 H5, 3-benzoyl-beta-carboline]
[1]
  In vitro IC50, inhibition of 3H flunitrazepam binding (Affinity for the benzodiazepine receptor): 0.00427 µg/mL
[2]
  In vivo ED50, inhibition of 3H flunitrazepam binding (Affinity for the benzodiazepine receptor): 223 mg/kg

## CCN(CC)N=Cc1cc2c(cn1)[nH]c1ccccc12 [drawing 41]
[3]; [4]
  ED50: > 100 mg/kg
[3]; [5]
  ED50: 100 mg/kg
[3]; [6]
  ED50: 100 mg/kg

## C(=NN1CCCCC1)c1cc2c(cn1)[nH]c1ccccc12 [drawing 27]
[1]
  In vitro IC50, inhibition of 3H flunitrazepam binding (Affinity for the benzodiazepine receptor): > 0.1 µg/mL
[2]
  In vivo ED50, inhibition of 3H flunitrazepam binding (Affinity for the benzodiazepine receptor): > 250 mg/kg

## C(=NN1CCOCC1)c1cc2c(cn1)[nH]c1ccccc12 [drawing 44]
[3]; [4]
  ED50: 100 mg/kg
[3]; [5]
  ED50: 50 mg/kg
[3]; [6]
  ED50: 50 mg/kg
